Patent US8415469B2, “Compounds and methods for kinase modulation, and indications therefor” (Plexxikon Inc., priority 2005, dated 2013)
Where two headings read alike, the source gives them in different places.

Experiments:
Format in all cases: biochemical
[1] = target: T1, Zap70 (Homo sapiens, UniProt P43403); assay: AlphaScreen kinase assay, Zap70; conditions: read-out: IC50, activity toward kinase Zap70
T1 construct: P1868.pFastBac1 ZAP70 D327-G606 HIS, WT; His7 (HHHHHHH) (C); made in house
T1 sequence (P43403 with tags, fused parts or gaps): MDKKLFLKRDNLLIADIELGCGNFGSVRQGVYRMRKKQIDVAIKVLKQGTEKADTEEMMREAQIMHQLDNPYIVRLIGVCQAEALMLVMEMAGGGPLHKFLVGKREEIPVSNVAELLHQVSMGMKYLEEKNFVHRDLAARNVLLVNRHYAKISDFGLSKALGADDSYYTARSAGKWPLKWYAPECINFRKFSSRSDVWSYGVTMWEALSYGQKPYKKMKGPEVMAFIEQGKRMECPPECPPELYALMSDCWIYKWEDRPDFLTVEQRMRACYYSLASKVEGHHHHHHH
Outline: (§1)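 Compounds in DMSO (20 mM stock) were diluted 1:3 across 8 points. Each kinase phosphorylated a biotin-labelled peptide. Signal generated when donor and acceptor beads came close via antibody binding of phosphorylated substrate.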

[2] = target: T2, Jnk3 (Homo sapiens, UniProt P53779); assay: AlphaScreen kinase assay, Jnk3; conditions: read-out: IC50, activity toward kinase Jnk3
T2 construct: purchased Upstate Biotechnology
T2 sequence (P53779 whole entry): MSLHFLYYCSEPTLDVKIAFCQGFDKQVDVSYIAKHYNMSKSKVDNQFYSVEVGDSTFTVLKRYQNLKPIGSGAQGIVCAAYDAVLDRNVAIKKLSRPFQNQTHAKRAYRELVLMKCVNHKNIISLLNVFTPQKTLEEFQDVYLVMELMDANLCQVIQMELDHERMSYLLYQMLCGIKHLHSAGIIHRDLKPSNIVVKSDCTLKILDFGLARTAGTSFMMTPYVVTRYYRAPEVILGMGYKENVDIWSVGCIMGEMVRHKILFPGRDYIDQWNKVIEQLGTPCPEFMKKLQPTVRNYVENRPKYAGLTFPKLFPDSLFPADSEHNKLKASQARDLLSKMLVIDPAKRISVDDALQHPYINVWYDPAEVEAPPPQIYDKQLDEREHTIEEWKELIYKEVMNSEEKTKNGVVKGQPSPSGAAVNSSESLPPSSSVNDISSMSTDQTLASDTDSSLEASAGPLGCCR

[3] = target: T3, Ret (Homo sapiens, UniProt P07949); assay: AlphaScreen kinase assay, Ret; conditions: read-out: IC50, activity toward kinase Ret
T3 construct: P1378.pET-SF BI-PTP RET H661-R1012 HIS; made in house
T3 sequence (P07949 with tags, fused parts or gaps): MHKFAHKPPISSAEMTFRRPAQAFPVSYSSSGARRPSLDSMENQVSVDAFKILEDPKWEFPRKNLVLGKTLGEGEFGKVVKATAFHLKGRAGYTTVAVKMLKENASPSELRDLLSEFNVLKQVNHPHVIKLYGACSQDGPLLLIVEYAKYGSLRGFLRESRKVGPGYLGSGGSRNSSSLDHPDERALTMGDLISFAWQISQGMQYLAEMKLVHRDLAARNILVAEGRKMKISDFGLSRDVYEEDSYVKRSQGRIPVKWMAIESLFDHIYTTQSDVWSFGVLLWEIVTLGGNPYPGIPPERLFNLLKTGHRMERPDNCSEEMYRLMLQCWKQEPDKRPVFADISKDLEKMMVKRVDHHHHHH

[4] = target: T4, Fak (Homo sapiens, UniProt Q05397); assay: AlphaScreen kinase assay, Fak; conditions: read-out: IC50, activity toward kinase Fak
T4 construct: P1358.pFastBacHtb FAK S411-Q686-X; His6 with pFastBacHTb leader (TEV site) (N); made in house; host or cells: Sf9 (baculovirus)
T4 sequence (Q05397 411-686): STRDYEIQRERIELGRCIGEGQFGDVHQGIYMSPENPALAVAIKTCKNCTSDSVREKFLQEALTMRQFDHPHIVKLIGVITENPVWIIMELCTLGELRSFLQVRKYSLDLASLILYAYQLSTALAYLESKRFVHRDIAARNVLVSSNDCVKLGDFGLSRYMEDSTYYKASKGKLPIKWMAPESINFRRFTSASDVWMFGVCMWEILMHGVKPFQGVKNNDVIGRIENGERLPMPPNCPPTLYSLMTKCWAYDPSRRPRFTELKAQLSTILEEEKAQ
Description: AlphaScreen assay was used to screen additional kinases. The assay is similarly dependent on the phosphorylation of a peptide substrate. In this assay, an antibody that recognizes phosphorylated substrate is bound to an acceptor bead. The peptide substrate is attached to biotin, which binds to a donor head that contains streptavidin. Thus phosphorylated substrate is bound by antibody and streptavidin, bringing the donor and acceptor heads into close proximity when kinase is not inhibited. The donor produces singlet oxygen which results in emission from the acceptor when they are in close proximity. Conversely, when kinase is inhibited, the donor and acceptor beads are not associated and the emission from the acceptor is reduced.
AlphaScreen assays were done using compounds dissolved in DMSO to a concentration of 20 mM. The compounds were diluted accordingly to the desired final concentrations in each sample well, using 1:3 serial dilution for a total of 8 concentration points. Plates were prepared such that each kinase reaction is 20 μl in 1× kinase buffer, 5% DMSO and 10 μM ATP. After incubation of the kinase reaction for 1 hour at room temperature, 5 μl of donor beads in stop buffer (50 mM EDTA in 1× kinase buffer) was added, the sample was mixed and incubated for 20 minutes at room temperature before adding 5 μl of acceptor beads in stop buffer. The samples were incubated for 60 minutes at room temperature and the signal per well was read on AlphaQuest reader.

[5] = target: T5, Met (Homo sapiens, UniProt P08581); assay: AlphaScreen kinase assay, Met; conditions: read-out: IC50, activity toward kinase Met
T5 construct: P1818.pETN6 BI-PTP MET G1056-G1364-X WT; His6 (N); made in house; host or cells: E. coli (PTP1B co-expressed)
T5 sequence (P08581 with tags, fused parts or gaps): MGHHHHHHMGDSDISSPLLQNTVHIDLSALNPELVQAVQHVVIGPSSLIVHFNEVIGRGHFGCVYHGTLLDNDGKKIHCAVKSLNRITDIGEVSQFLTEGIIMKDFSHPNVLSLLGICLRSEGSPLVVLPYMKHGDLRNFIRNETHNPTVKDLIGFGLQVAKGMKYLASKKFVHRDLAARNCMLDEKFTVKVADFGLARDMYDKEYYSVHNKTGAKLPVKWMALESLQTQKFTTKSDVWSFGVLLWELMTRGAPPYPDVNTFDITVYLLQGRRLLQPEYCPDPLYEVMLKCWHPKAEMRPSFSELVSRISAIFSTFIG
Outline: as §1

[6] = target: T6, Abl (Homo sapiens, UniProt P00519); assay: AlphaScreen kinase assay, Abl; conditions: read-out: activity toward kinase Abl, IC50
T6 construct: P1121. pET-SPEC BI-PTP Abl G227-V515-X; His6 (N); made in house; host or cells: E. coli (PTP1B co-expressed)
T6 sequence (P00519 with tags, fused parts or gaps): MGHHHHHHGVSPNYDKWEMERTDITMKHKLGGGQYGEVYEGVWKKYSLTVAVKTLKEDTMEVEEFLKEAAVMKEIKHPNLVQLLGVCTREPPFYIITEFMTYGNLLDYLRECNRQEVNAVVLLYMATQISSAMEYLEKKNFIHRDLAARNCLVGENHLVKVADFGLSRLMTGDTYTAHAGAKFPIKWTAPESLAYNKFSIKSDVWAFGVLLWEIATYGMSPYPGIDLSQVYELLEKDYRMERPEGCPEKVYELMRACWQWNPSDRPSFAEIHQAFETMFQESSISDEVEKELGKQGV
Outline: as §1

[7] = target: T7, Pyk2 (Homo sapiens, UniProt Q14289); assay: AlphaScreen kinase assay, Pyk2; conditions: read-out: IC50, activity toward kinase Pyk2
T7 construct: purchased Upstate Biotechnology
T7 sequence (Q14289 whole entry): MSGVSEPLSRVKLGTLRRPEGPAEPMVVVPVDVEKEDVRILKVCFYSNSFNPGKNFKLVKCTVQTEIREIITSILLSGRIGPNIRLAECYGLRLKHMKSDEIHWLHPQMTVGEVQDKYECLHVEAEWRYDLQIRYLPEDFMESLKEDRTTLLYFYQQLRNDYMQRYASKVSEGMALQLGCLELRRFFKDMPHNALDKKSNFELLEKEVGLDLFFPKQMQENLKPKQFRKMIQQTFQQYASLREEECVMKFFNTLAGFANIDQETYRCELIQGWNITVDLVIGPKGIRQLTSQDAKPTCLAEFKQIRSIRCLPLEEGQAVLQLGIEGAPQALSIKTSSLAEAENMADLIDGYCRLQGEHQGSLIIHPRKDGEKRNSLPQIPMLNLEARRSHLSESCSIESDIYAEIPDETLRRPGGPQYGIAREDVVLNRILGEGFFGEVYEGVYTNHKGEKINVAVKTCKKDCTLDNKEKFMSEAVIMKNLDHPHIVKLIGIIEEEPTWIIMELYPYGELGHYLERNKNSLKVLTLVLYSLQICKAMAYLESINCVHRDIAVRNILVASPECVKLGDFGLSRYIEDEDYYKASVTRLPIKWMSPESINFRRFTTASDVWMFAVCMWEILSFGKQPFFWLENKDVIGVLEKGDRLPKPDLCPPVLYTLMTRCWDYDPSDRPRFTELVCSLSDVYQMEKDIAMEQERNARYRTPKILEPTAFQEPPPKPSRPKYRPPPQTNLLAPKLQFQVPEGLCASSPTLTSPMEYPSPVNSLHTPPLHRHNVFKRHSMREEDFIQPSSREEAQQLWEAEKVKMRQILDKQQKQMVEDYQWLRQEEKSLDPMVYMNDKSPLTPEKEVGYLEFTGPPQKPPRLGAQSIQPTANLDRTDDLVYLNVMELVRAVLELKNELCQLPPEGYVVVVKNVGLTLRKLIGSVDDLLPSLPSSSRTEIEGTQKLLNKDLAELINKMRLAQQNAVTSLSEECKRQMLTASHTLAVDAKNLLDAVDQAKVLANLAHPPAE

[8] = target: T8, Src (Homo sapiens, UniProt P12931); assay: AlphaScreen kinase assay, Src; conditions: read-out: IC50, activity toward kinase Src
T8 construct: P1144. pET-N6 BI-PTP SRC V86-L536-X; made in house

[9] = target: T9, Flt1 (Homo sapiens, UniProt P17948); assay: AlphaScreen kinase assay, Flt1; conditions: read-out: IC50, activity toward kinase Flt1
T9 construct: P1826.pETN6 BI-PTP FLT1 M799-D1165-X WT; His6 (N); made in house; host or cells: E. coli (PTP1B co-expressed)
T9 sequence (P17948 with tags, fused parts or gaps): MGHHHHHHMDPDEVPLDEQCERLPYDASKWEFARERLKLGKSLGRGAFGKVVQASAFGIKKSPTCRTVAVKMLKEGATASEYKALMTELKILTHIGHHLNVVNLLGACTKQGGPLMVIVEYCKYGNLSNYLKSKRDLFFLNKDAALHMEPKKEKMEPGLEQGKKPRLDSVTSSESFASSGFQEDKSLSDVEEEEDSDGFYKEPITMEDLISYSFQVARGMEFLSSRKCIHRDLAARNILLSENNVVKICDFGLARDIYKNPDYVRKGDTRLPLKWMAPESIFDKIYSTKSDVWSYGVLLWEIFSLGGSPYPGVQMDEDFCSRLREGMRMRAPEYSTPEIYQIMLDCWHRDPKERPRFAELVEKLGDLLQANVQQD

[10] = target: T10, Kdr (Homo sapiens, UniProt P35968); assay: Z'-Lyte FRET kinase assay (Invitrogen), Kdr; conditions: read-out: IC50, activity toward kinase Kdr
T10 construct: purchased Invitrogen (assay run by Invitrogen)
T10 sequence (P35968 20-1356): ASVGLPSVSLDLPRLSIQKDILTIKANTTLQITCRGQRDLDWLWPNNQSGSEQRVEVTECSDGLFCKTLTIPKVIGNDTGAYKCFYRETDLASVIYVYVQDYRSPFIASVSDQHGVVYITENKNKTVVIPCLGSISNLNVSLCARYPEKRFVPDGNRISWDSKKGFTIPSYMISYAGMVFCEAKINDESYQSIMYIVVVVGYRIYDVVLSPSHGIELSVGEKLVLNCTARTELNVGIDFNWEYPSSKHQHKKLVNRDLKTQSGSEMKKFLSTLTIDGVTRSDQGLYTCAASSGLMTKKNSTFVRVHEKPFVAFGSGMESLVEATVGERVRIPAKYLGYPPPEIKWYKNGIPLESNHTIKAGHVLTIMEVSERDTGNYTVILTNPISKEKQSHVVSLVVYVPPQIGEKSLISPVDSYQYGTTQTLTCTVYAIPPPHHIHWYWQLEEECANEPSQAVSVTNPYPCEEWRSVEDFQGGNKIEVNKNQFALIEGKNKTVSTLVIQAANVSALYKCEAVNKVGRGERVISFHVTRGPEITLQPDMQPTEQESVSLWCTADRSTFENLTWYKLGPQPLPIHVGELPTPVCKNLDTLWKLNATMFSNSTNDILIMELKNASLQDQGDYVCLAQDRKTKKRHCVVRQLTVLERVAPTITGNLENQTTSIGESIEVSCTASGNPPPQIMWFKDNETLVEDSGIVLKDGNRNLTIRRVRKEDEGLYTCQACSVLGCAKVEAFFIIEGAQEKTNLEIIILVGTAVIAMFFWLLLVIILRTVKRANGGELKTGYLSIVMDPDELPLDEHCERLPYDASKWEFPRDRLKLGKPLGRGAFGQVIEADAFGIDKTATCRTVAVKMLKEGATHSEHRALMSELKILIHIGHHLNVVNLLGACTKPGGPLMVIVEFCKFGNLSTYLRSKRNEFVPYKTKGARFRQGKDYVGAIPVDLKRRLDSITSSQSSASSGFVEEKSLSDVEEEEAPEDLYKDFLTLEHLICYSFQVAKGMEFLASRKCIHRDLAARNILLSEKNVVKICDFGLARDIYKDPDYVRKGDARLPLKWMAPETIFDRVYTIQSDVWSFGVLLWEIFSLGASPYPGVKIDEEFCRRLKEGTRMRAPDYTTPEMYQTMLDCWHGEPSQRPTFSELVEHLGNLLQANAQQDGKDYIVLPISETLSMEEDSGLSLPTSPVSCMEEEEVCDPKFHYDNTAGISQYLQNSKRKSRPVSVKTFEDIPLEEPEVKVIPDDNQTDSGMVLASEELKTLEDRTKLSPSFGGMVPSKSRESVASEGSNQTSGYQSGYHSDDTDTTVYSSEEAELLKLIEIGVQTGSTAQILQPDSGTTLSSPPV

[11] = target: T11, FGFR1 (Homo sapiens, UniProt P11362, C488A/C584S); assay: AlphaScreen kinase assay, FGFR1; conditions: read-out: IC50, activity toward kinase FGFR
T11 construct: P1351.pET N6 BI-PTP FGFR A458-E765-X C488A, C584S; made in house; host or cells: E. coli (PTP1B co-expressed)
T11 sequence (P11362 458-765 C488A/C584S): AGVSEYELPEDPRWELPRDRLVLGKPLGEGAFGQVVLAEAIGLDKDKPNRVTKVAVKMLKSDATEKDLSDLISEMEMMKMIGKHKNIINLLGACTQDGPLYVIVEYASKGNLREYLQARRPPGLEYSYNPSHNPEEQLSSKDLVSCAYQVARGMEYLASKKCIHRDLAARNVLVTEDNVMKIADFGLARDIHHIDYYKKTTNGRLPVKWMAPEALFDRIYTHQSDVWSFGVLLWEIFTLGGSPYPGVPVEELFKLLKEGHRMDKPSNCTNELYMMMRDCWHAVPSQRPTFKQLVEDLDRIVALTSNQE

[12] = target: T12, B-Raf V600E (Homo sapiens, UniProt P15056, V600E); assay: AlphaScreen kinase assay, B-Raf V600E
T12 construct: P4254. pFastBacBD-CDC37 BRAF D437-K722-X, V600E; His6 with pFastBac HT leader (TEV site) (N); made in house; host or cells: Sf9 (baculovirus; chaperone CDC37 co-expressed)
T12 sequence (P15056 with tags, fused parts or gaps V600E): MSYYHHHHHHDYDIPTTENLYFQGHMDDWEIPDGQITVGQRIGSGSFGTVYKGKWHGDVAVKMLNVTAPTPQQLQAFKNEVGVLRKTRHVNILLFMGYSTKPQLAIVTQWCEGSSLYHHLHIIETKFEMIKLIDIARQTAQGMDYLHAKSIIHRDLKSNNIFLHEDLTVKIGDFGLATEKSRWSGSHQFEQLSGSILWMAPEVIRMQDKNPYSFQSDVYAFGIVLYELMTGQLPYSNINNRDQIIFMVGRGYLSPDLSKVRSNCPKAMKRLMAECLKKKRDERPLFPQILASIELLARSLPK

[13] = target: T13, Stk6 (Homo sapiens, UniProt O14965); assay: Z'-Lyte FRET kinase assay (Invitrogen), Stk6; conditions: read-out: IC50, activity toward kinase Stk6
T13 construct: purchased Invitrogen (Carlsbad, Calif.), screening service
T13 sequence (O14965 1-403): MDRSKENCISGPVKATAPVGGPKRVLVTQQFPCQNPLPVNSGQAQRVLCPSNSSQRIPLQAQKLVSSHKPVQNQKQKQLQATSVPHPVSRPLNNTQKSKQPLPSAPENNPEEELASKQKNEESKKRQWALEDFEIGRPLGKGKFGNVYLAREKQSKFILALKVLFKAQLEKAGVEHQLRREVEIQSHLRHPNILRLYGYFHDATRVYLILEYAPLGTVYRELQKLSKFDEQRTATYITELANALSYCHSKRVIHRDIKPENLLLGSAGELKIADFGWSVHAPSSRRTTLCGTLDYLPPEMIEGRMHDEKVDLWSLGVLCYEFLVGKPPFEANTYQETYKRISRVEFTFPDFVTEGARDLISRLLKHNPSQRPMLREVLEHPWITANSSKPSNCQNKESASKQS
Description: For example, direct radiometric, indirect FRET or AlphaScreen assays may be used to assess the level of phosphorylation of a substrate in the presence of test compounds in order to determine the inhibitory affect of the compound on the kinase. […] For these assays, compounds of the invention were screened by Invitrogen using Z′-Lyte™ kinase assay.
Briefly, the Invitrogen kinase assay involves use of a specific peptide substrate optimized for each kinase, containing a fluorophore at each end that make up the FRET pair. The peptide sensitivity to proteolytic cleavage depends on phosphorylation of the peptide. Non-phosphorylated peptide is cleaved by a protease while peptide phosphorylated by the kinase is not cleaved. Cleavage of the peptide disrupts the FRET between the donor (coumarin) and acceptor (fluorescein) fluorophores, resulting in an increase in the ratio of donor emission to acceptor emission. The emission ratio of coumarin to fluorescein is used to assess the reaction progress. […] Thus, the assay involves a kinase reaction in the presence of varying concentrations of a given compound, a development reaction with site specific protease, and detection of the fluorescent emission ratio of coumarin and fluorscein. […] Reaction conditions for each kinase are determined to provide optimal reaction times, incubation temperature, kinase and ATP concentrations. Test samples are made up in 1× kinase buffer (50 mM HEPES pH 7.5, 50 mM MgCl2, 5 mM EGTA, 0.05% BRIJ-35) and compound at desired concentration prepared in DMSO such that the final DMSO is 1%. […] All kinase except for MAP2K1 were at 10 μM ATP in the kinase reaction, while MAP2K1 was at 100 μM. Samples are mixed and the kinase reaction is incubated 1 hour at room temperature, after which 5 μl of development solution is added and mixed. After incubation for another 1 hour at room temperature, 5 μl of stop reagent is added to each sample and mixed. The fluorescence signals are measured to determine the emission ratio.

[14] = target: T14, B-Raf (Homo sapiens, UniProt P15056); assay: AlphaScreen kinase assay, B-Raf
T14 construct: purchased Upstate Biotechnology

[15] = target: T15, Kit (Homo sapiens, UniProt P10721); assay: AlphaScreen kinase assay, Kit; conditions: read-out: IC50, activity toward kinase Kit
T15 construct: P1332.N6 BI PTP KIT M552-K948-X COD; His6 (N); made in house; host or cells: E. coli (PTP1B co-expressed)
T15 sequence (P10721 with tags, fused parts or gaps): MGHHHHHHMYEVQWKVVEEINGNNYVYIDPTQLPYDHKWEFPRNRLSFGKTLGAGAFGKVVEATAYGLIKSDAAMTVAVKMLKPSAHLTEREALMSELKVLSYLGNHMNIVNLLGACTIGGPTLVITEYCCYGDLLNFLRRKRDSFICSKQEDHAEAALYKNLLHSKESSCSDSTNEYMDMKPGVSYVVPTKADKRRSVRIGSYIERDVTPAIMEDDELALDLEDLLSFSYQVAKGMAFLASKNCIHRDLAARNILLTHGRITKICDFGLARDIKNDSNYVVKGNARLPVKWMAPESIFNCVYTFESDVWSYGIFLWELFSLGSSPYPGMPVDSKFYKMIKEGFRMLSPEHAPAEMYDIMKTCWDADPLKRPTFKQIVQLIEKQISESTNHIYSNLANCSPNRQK

[16] = target: T16, Jnk2 (Homo sapiens, UniProt P45984); assay: AlphaScreen kinase assay, Jnk2; conditions: read-out: IC50, activity toward kinase Jnk2
T16 construct: purchased Roche Protein Expression Group (Indianapolis, IN)
Outline: as §1

[17] = target: T17, Jnk1 (Homo sapiens, UniProt P45983); assay: AlphaScreen kinase assay, Jnk1; conditions: read-out: IC50, activity toward kinase Jnk1
T17 construct: purchased Upstate Biotechnology
T17 sequence (P45983 whole entry): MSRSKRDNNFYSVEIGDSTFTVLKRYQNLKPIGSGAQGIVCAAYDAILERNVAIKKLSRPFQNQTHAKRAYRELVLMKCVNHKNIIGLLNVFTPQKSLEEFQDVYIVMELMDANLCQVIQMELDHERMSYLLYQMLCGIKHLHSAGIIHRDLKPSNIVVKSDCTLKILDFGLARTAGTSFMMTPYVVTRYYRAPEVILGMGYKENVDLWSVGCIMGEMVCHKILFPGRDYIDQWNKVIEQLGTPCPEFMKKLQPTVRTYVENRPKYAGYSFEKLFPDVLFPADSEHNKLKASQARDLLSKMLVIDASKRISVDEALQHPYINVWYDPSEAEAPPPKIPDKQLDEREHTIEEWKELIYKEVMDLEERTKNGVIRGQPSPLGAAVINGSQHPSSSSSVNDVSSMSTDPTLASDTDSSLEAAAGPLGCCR

Measured: IC50

CS(=O)(=O)CCNC(=O)c1ccc(S(=O)(=O)NCc2c[nH]c3ncccc23)cc1 [Compound P-0675]
≤ 10 µM: [1] | [2] | [3] | [4] | [5] | [6]

O=S(=O)(NCc1c[nH]c2ncccc12)c1ccsc1 [Compound P-0320]
≤ 10 µM: [1] | [7] | [2] | [8] | [3] | [9] | [10] | [11] | [5] | [12]; read-out: IC50, activity toward kinase B-Raf V600E | [6]

COc1cccc(Cc2c[nH]c3ncc(-c4ccc(N)cc4)cc23)c1 [Compound P-0140]
≤ 10 µM: [13] | [14] | [15] | [16] | [3] | [10] | [17] | [11] | [5] | [12] | [6]
